Laboratory results taken from US4073938A, “19,20-Bis-nor-prostenoic acids as hypolipemic compounds” (Istituto Biochimico Italiano di Loredana Lorenzini S.a.s., priority 1974, dated 1978).
Counter-ions that a name gives are not always drawn.

Key:
[1] = Triglycerides and cholesterol in rats on Nath diet, endoperitoneal or by mouth; assay type: in vivo, male Sprague-Dawley rats; settings: 1 week
Experimental: Treatment with 25 mg/kg/die for 1 week on male Sprague-Dawley rats of 150

[2] = LD50 by mouth in the mouse; assay type: in vivo; settings: in vivo, po
Experimental: (§1) a. LD50 by mouth in the mouse about 3000 mg/kg
(§2) 25 gr of XVI are dissolved in 400 ml of water with NaOH 15% to pH 9, filtered and lyophilized : 24 gr of sodium salt of XVI as a white solid are obtained, humidity (K. Fisher) 2.08%, no U.V. absorption, equivalent weight found 301.7, I.R. bands at 3400, 1765, 1565, 1460, 1420, 1378 cm^-1.
(§3) After 20 hours at 20°, the solvent is evaporated in vacuo, the residue is dissolved in 1300 ml of water treated with 120 ml of acetic acid, extracted with chloroform. After solvent evaporation, 65.1 gr of the compound XVIII are obtained, as an oil, I.R. bands at 3420, 3100, 1710 cm^-1. 35 gr of the compound XVIII are dissolved in 600 ml of water with NaOH to pH 9. The solution is filtered and lyophilized: 35.5 gr of sodium salt of 9-hydroxy-19,20-bis-nor-prostanoic acid are obtained, as white solid, humidity (K.Fisher) 1.73%, no U.V. absorption, equivalent weight found 320, I.R. bands at 3400, 3300, 1565, 1460, 1390 cm^-1, LD50 by mouth in mice about 3000 mg/kg.

mouse = experiment: LD50 by mouth in the mouse; assay type: in vivo
Experimental: as §1, §2, §3

[3] = Coagulation test (Time of Quick, Time of Howel); assay type: in vivo, Male Sprague-Dawley rats; settings: 200 mg/kg endoperitoneal, 2 hours before
Experimental: c. Coagulation test: minutes/10 ± E.S.
Coagulation test (Repetition): minutes/100 ± E.S.
(§4) Treatment with the dose of 200 mg/kg endoperitoneal, 2 hours before the test.
Male Sprague-Dawley rate 150 gr.

[4] = Triglyceridemia and cholesterolemia in rats given alcohol 10%; assay type: in vivo, Male Sprague-Dawley rats; settings: 1 week endoperitoneal once daily (CPIB, BBA 200 mg/kg; C83 50 mg/kg)
Experimental: | Treatment for 1 week CPIB - BBA - 200 mg/kg endoperitoneal; C83 | 50mg/kg endoperitoneal; only one daily administration. | Male Sprague-Dawley rats 150 gr. | Groups of 6 rats.

[5] = Triglycerides and cholesterol in rats on Nath diet, 25 and 50 mg/kg endoperitoneal; assay type: in vivo, male Sprague-Dawley rats; settings: 1 week
Experimental: Treatment with 25 and 50 mg/kg/die endoperitoneal for 1 week on male
Sprague-Dawley rats of 150 gr.

[6] = Deepness and rapidity test (untitled table 6); assay type: in vivo, Male Sprague-Dawley rats; settings: 200 mg/kg endoperitoneal; for Rapidity ± E.S.: controls 3.4 ± 0.3; for Deepness (mm ± E.S.): controls 74.9 ± 6.2
Experimental: | Treatment with the dose of 200 mg/kg endoperitoneal, one or two hours | before sacrifice. Male Sprague-Dawley rats with an average weight of 150 | gr.

[7] = tested on: ulcer induced by phenylbutazone; experiment: Anti-ulcerous activity, ulcer from phenylbutazone (9-hydroxy sodium salt); assay type: in vivo, Female rats of the Wistar stock
Experimental: Also in this case the anti-ulcerous activity is tested on an ulcer induced by aspirin and by phenylbutazone. In both cases lesions of various sizes are formed in the glandular section of the stomach.
Female rats of the Wistar stock weighing 170 ± 180 g are again involved. The animals are held in constant ambient conditions for at least 2 weeks before the start of the test. 24 hours before the start of the test the animals are made to fast, while they are allowed water at will.
Each test group consists of 10 animals. The substance in question is administered a first time 15 minutes before administration of phenylbutazone (200 mg/kg × 1 ml in 0.5% tragacanth gum solution orally), and a second time 21/2 hours after. The doses of the substance in question amount to 2.5, 10, 50, 100, 200 and respectively 400 mg/kg × 2 ml of 0.5% tragacanth gum solution, orally.
5 hours after the administration of phenylbutazone the animals are killed, the stomachs are extracted, fixed and with the aid of a stereomicroscope magnifying 8 times a point count evaluation is carried out. The lesions of the gastric mucosa are expressed in % of the stomach surface.

Glycemia test at fast = assay type: in vivo, Male Sprague-Dawley rats; settings: 200 mg/kg endoperitoneal, 2 hours before the test
Experimental: b. Glycemia test at fast: mg/100 ml blood in toto ± E.S.
Glycemia test at fast (Repetition): mg/100 ml blood in toto ± E.S.
as §4
Male Sprague-Dawley rats 150 grs.

[8] = tested on: smooth musculature (trachea of guinea-pig, fundal end stomach of rat, uterus of rat, portal vein of rat); experiment: General pharmacology: prostaglandino-similar activity on smooth muscle preparations; settings: 100 μg/ml
Experimental: The compound C83 has been tested pharmacologically in order to show a probable prostaglandino-similar activity.
The compound C83 has been studied on the above parameters:
1. Trachea of guinea-pig.
2. Strips of fundal end stomach of rat.
5. Cardiovascular effects.
This compound has been tested at the concentration of 100 μg/ml in all preparations above mentioned.

## CCCCCCC1CCC(O)C1CCCCCCC(=O)O (stereo not shown) [Compound C83, 9-hydroxy-19,20-bis-nor-prostanoic acid sodium salt]
[1]; 25 mg/kg/die by mouth, Nath diet 134.9 ± 9.4, p<0.05 vs Nath diet
  triglycerides: 109.4 ± 6.9
[1]; 25 mg/kg/die by mouth, Nath diet 333.3 ± 29.9
  cholesterol: 380.2 ± 77.8
[1]; 25 mg/kg/die endoperitoneal, controls 72.6 ± 4.3, Nath diet 333.3 ± 29.9, p<0.001 vs Nath diet
  cholesterol: 168.3 ± 26.8
[1]; 25 mg/kg/die endoperitoneal, controls 96.9 ± 9.4, Nath diet 134.9 ± 9.4, p<0.05 vs Nath diet
  triglycerides: 91.9 ± 16.3
[2]
  LD50: ~3000 mg/kg
mouse
  LD50: about 3000 mg/kg
[3]; controls 25.3 ± 0.2, p < 0.001
  Time of Quick (± E.S.): 29.0 ± 0.4 minutes/10
[3]; controls 84.5 ± 1.6, p < 0.001
  Time of Howel (± E.S.): 98.8 ± 0.9 minutes/10
[3]; repetition, controls 25.8 ± 0.4, p < 0.001
  Time of Quick (Repetition) (± E.S.): 29.3 ± 0.3 minutes/100
[3]; repetition, controls 95.0 ± 1.5, p < 0.001
  Time of Howel (Repetition) (± E.S.): 118.8 ± 2.4 minutes/100
[4]; controls 91.5 ± 6.6, alcohol 81.0 ± 4.6
  Cholesterolemia: 56.3 ± 3.9
[4]; controls 97.8 ± 5.1, alcohol 169.0 ± 25.0
  Triglyceridemia: 85.2 ± 13.5
[5]; 25 mg/kg/die endoperitoneal, controls 64.4 ± 2.8, Nath diet 180.0 ± 15.8, p<0.01 vs Nath diet
  cholesterol: 108.3 ± 13.9
[5]; 25 mg/kg/die endoperitoneal, controls 91.1 ± 13.5, Nath diet 135.2 ± 22.8
  triglycerides: 81.5 ± 13.3
[5]; 50 mg/kg/die endoperitoneal, Nath diet 135.2 ± 22.8, p<0.01 vs Nath diet
  triglycerides: 49.1 ± 6.1
[5]; 50 mg/kg/die endoperitoneal, Nath diet 180.0 ± 15.8, p<0.001 vs Nath diet
  cholesterol: 101.8 ± 4.4
[6]; 1 hour before sacrifice
  Rapidity ± E.S.: 1.6 ± 0.2
  Deepness (mm ± E.S.): 29.1 ± 3.6 mm
[6]; 2 hours before sacrifice
  Rapidity ± E.S.: 3.3 ± 0.7
  Deepness (mm ± E.S.): 67.3 ± 12.6 mm
[7]; FIG. 1
  correlation between dose and inhibition of ulcer surface area (in words): highly significant correlation between the dose and the inhibition of the surface area of the ulcer
[7]; Rattus norvegicus, po, orally, calculated from the regression lines, read-out: DE 50 (inhibition of the surface area of the ulcer)
  ED50: 37 mg/kg
[7]; orally, 2 × 2.5 mg/kg, controls 0.80 ± 3.26
  Surface area of the ulcer in % with respect to surface area of the stomach (x ± Sx): 0.57 ± 2.10%
[7]; orally, 2 × 10 mg/kg, controls 3.60 ± 3.33
  Surface area of the ulcer in % with respect to surface area of the stomach (x ± Sx): 2.13 ± 2.22%
[7]; orally, 2 × 25 mg/kg, controls 0.80 ± 3.26
  Surface area of the ulcer in % with respect to surface area of the stomach (x ± Sx): 0.33 ± 1.59%
[7]; orally, 2 × 50 mg/kg, controls 3.57 ± 3.59
  Surface area of the ulcer in % with respect to surface area of the stomach (x ± Sx): 1.30 ± 1.74%
[7]; orally, 2 × 100 mg/kg, controls 3.60 ± 3.33
  Surface area of the ulcer in % with respect to surface area of the stomach (x ± Sx): 1.97 ± 1.44%
[7]; orally, 2 × 200 mg/kg, controls 3.57 ± 3.59, p<0.02
  Surface area of the ulcer in % with respect to surface area of the stomach (x ± Sx): 0.27 ± 0.53%
Glycemia test at fast; controls 63.8 ± 4.1, p < 0.001
  Glycemia at fast (± E.S.): 99.3 ± 2.7 mg/100 ml blood in toto
Glycemia test at fast; repetition, controls 81.1 ± 3.5, p < 0.01
  Glycemia at fast (Repetition) (± E.S.): 121.4 ± 9.8 mg/100 ml blood in toto
[8]
  action on smooth musculature: clear prolonged action on muscle on the different kinds of smooth musculature
